Reference: patent US20250281540A1, “Methods for Haematopoietic Stem Cell Transplantation” (Ospedale San Raffaele S.r.l., priority 2022, published 2025)

Experiments:
WBC, LSK and SLAM HSC [1] = test: Mobilization protocols in Cd40Ig^−/− mice (PB and BM counts); type: in vivo
Source text: To investigate the therapeutic potential of M-HSCT, we took advantage of Cd40Ig^−/− mice, which faithfully recapitulate the phenotype of the human primary combined immunodeficiency Hyper IgM Syndrome 1 (HIGM-1; Renshaw, B. R., et al. (1994). J Exp Medicine 180, 1889-1900). Because G-CSF treatment may have a detrimental effect on the BM niche, we investigated the efficiency of mobilization protocols differing for its presence or absence, the G-CSF dose and the duration and combination with other drugs (FIG. 2A).
(§1) Blood samples were also analysed with the hemocytometer Sysmex KX-21N (Block scientific, Sysmex corporation) to quantify absolute numbers.
Different protocols were tested in Cd40Ig^−/− mice: (i) s.c. pump delivering 250 μg/kg/day of G-CSF for 7 days (G7); (ii) s.c. pump delivering 250 μg/kg/day of G-CSF for 7 days, with i.p. injections of AMD3100 (5 mg/kg/day) on day 6 and 7 (G7A); (iii) s.c. pump delivering 250 μg/kg/day of G-CSF for 7 days, with i.p. injections of AMD3100 (5 mg/kg/day) and BIO5192 (1 mg/kg/day) on day 6 and 7 (G7AB); (iv) s.c. pump delivering 125 μg/kg/day of G-CSF for 7 days, with i.p. injections of AMD3100 (5 mg/kg/day) and BIO5192 (1 mg/kg/day) on day 6 and 7 (G7AB-H); (v) G-CSF delivered by i.p. injections (125 μg/kg) every 12 hours for four days, with AMD3100 s.c. injections (5 mg/kg) 14 hours after the last dose of G-CSF (G5A); (vi) G-CSF delivered by i.p. injections (125 μg/kg) every 12 hours for four days, with AMD3100 (5 mg/kg) and BIO5192 (1 mg/kg) s.c. injections 14 hours after the last dose of G-CSF (G5AB); (vii) s.c. pump delivering 250 μg/kg/day of G-CSF for 3 days, with i.p. injections of AMD3100 (5 mg/kg/day) and BIO5192 (1 mg/kg/day) on day 6 and 7 (G3AB); (viii) s.c. pump delivering 125 μg/kg/day of G-CSF for 3 days, with i.p. injections of AMD3100 (5 mg/kg/day) and BIO5192 (1 mg/kg/day) on day 6 and 7 (G3AB-H); and (ix) AMD3100 (5 mg/kg/day) and BIO5192 (1 mg/kg/day) i.p. injected for three days.
Bone marrow vacancy and estimated chimerism were calculated based on the following formulas in Cd40Ig^−/− mice (summarized in table below): • To determine the total number of SLAM HSC per mouse at steady state (FIG. 2G, left panel), lower limbs (which account for 20% of the total BM) were collected in a defined volume and counted, paralleled with their characterization through FACS. We found 2500 SLAM HSC/lower limbs, therefore reaching a total of 12,500 SLAM HSC/mouse (2500*100/20). This number is in accordance with other published papers (Chen, J., et al. (2008). Experimental hematology, 36(10), 1236-1243; Karpova, D., et al. (2017). Blood, 129(21), 2939-2949; and Singh, P., et al. (2020). Stem cells (Dayton, Ohio), 38(7), 849-859). • To determine the total number of SLAM HSC that egressed from the BM post-G7AB mobilization, we examined the BM of mobilized mice. 1100 SLAM HSC were recovered in the lower limbs, reaching a total of 5500 SLAM HSC in the BM of mobilized mice. Therefore, to determine the number of SLAM HSC egressed, the number of SLAM HSC present post-mobilization was subtracted from the total number of SLAM HSC present in the steady state mouse, leading to an assessment of 7000 SLAM HSC egressing from the BM (12500-5500). • The mobilized SLAM HSC/mL was calculated based on the bleeding performed at the peak of mobilization in mobilized mice (FIG. 2G, right panel). The blood was analyzed through hematocytometer (WBC/mL) and FACS staining (% subpopulation). […]

VLA-4 = VLA-4 (Homo sapiens, UniProt P05556+P13612); conditions: VLA-4 versus α4β7 integrin; Ramirez et al. 2009; cited from earlier work
WBC, LSK and SLAM HSC [2] = test: Mobilization of WBC, LSK and SLAM HSC into the circulation of C57BL/6J CD45.2 mice; type: in vivo; conditions: addition of BIO5192 to G7A (G7AB)
Experimental: We tested two mobilization regimens in mice, one modeling a clinically approved protocol using G-CSF and AMD3100 (G7A), and the other one also comprising BIO5192 (G7AB). C57BL/6J CD45.2 mice were treated with G-CSF using a subcutaneous pump for a week combined with either AMD3100, or the combination of AMD3100 and BIO5192, delivered intraperitoneally at day 6 and 7 (FIG. 1A; FIG. 6B).
The addition of BIO5192 led to a higher mobilization of WBC, LSK and SLAM HSC, leading to an additional 2-fold increase of SLAM HSC over G7A levels.
as §1

CD45.1 Lin^− donor cells = test: M-HSCT: donor CD45.1 chimerism after mobilization of CD45.2 recipients; type: in vivo, C57BL/6J CD45.2 mice; conditions: addition of BIO5192 to the G-CSF/AMD3100 protocol (G7AB); 2×10^6 CD45.1 Lin^− cells; PB
Source text: To test if these levels of mobilization, and the subsequent BM niche availability, were sufficient to allow engraftment of donor cells, 2×10^6 CD45.1 lineage negative (Lin^−) cells, purified from the BM, were transplanted into CD45.2 congenic recipients after the last injection of AMD3100 or AMD3100/BIO5192 (FIG. 1A, C; FIG. 6D).
Donor mice between 6 and 10 weeks of age were euthanized by CO2, and BM cells were retrieved from femurs, tibias, and humeri. HSPCs were purified by Lin− selection using the mouse Lineage Cell Depletion Kit (Miltenyi Biotec) according to the manufacturer's instructions. Cells were then cultured (for 2 hours or overnight) in serum-free StemSpan medium (StemCell Technologies) containing penicillin, streptomycin, glutamine, and a combination of mouse cytokines (20 ng/ml IL-3, 100 ng/ml SCF, 100 ng/ml Flt-3L, 50 ng/ml TPO all from PeproTech), at a concentration of 2-5×10^6 cells.ml^−1. Purified Lin^− cells were transplanted at a total dose of 2×10^6 cells/mouse into 8 to 12-week-old mobilized mice, three hours after the last injection of AMD3100 and/or Bio5192. Serial collections of blood from the retro-orbital vein were performed to monitor the hematological parameters and donor cell engraftment. At the end of the experiment, BM, thymus and spleen, and lymph nodes were harvested and analyzed.

[3] = tested on: GFP+ cells within the hCD45+ population; test: M-HSCT in hematochimeric mice with drug-resistant CXCR4 variant; AMD3465 protocol; type: in vivo, NSGW41 or NBSGW mice
Source text: FIG. 12. […] NSGW41 or NBSGW mice were humanized with human mobilized peripheral blood CD34+ cells until 10% chimerism was achieved. Mice were then mobilized with G-CSF for 7 days through subcutaneous pump implantations and with two injections of AMD3100 and BIO5192 at day 6 and 7. For the second transplant, GFP lentiviral vector-transduced cells from the same donor used to humanize the mice were electroporated with either CXCR4 wild type or CXCR4^D262N variant. The donor cells were then transplanted either at 3 h or immediately after the last injection of AMD3100. • (B) Human chimerism over time after mobilization, expressed as % of human CD45+ cells present in peripheral blood (right panel), and exchange efficiency (left panel) expressed as % of GFP+ cells within the hCD45+ population. CXCR4 Var=CXCR4 D262N. • (C) Mobilization efficiency of the standard protocol (G7AB) or the modified protocol with AMD3465 (G7AB*) measured as white blood cell count (WBC, left panel), and human CD34+CD38− cells (right panel). • (D) Human chimerism over time after mobilization, expressed as % of hCD45+ cells in peripheral blood (right panel), and exchange efficiency (left panel) expressed as % of GFP+ cells within the hCD45+ population. […]

CXCL12 = test: ELISA on BM extracellular extracts, CXCL12; type: in vivo, Cd40Ig^−/− mice
Experimental: (§2) For ELISA performed on BM matrix, femurs and tibias were repeatedly flushed with 1 mL of cold PBS. Cells were pelleted by centrifugation at 300 g for 10 minutes at 4° C., supernatant was then collected and stored at −80° C. ELISA has been performed following manufacturer instruction after a 1:100 dilution with 1× Assay Diluent for MMP9 (Thermo Scientific) or on undiluted BM matrix for CXCL12 (Sigma-Aldrich).

MMP9 = test: ELISA on BM extracellular extracts, MMP9; type: in vivo, Cd40Ig^−/− mice
Experimental: as §2

Sequence of VLA-4 (P13612 34-1032): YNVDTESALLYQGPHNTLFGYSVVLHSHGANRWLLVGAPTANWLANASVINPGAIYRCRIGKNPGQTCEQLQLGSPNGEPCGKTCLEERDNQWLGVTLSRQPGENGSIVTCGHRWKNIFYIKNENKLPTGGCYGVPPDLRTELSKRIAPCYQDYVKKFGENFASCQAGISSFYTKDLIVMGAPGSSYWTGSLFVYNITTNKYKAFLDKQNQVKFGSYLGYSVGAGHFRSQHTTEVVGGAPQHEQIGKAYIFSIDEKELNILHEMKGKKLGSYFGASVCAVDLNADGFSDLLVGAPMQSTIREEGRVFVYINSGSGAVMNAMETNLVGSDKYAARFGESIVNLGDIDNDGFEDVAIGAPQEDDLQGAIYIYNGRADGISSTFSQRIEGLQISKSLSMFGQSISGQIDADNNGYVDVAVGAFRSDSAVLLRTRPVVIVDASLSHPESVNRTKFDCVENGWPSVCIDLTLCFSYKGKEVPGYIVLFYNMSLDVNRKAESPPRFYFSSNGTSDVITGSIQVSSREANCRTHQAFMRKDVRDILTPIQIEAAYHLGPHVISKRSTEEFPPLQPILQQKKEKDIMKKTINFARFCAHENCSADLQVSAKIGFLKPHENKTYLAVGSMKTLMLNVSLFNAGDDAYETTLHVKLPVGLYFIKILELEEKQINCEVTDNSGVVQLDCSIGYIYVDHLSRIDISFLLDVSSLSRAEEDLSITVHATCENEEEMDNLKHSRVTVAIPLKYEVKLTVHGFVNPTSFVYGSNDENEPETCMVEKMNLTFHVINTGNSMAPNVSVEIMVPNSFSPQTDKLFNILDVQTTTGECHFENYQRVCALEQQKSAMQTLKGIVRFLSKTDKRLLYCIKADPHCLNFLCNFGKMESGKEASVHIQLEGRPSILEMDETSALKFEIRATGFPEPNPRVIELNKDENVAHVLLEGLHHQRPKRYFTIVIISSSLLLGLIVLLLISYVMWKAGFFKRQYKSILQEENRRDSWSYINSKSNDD
Sequence of VLA-4 (P05556 21-798): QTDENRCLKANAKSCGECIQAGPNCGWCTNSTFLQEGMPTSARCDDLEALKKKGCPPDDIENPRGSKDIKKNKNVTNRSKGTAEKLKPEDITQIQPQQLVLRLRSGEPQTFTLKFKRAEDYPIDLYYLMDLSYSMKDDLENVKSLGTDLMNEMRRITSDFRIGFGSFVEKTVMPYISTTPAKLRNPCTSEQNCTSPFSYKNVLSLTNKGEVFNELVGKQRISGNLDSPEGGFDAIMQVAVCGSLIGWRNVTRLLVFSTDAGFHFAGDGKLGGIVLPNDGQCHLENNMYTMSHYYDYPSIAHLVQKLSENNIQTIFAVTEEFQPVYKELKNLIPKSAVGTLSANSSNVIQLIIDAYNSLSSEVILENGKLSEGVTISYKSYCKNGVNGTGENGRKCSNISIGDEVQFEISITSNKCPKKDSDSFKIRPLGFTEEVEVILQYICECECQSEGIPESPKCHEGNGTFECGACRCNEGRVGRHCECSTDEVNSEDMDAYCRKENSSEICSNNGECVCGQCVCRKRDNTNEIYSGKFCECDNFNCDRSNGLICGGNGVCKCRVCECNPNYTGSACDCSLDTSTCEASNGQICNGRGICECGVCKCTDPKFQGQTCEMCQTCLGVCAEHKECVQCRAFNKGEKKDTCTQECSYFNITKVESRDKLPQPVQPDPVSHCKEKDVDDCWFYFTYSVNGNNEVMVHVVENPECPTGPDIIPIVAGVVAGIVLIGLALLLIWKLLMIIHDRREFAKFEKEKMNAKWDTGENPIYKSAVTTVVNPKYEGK

## Cc1ccccc1NC(=O)Nc1ccc(CC(=O)N(C)[C@@H](CC(C)C)C(=O)NCC[C@H](NC(=O)[C@@H]2CCCN2S(=O)(=O)c2cc(Cl)cc(Cl)c2)C(=O)O)cc1 [BIO5192]
WBC, LSK and SLAM HSC [1]; BIO5192 added to G-CSF and AMD3100
  further increase of mobilized LSK: 5 fold
VLA-4
  affinity for VLA-4 higher than for the related α4β7 integrin: 250- to 1000 fold
WBC, LSK and SLAM HSC [2]
  additional increase of SLAM HSC over G7A levels: 2 fold
CD45.1 Lin^− donor cells
  donor chimerism, median: 30%

## c1cc(CN2CCCNCCNCCCNCC2)ccc1CN1CCCNCCNCCCNCC1 [AMD3100, plerixafor]
WBC, LSK and SLAM HSC [1]; addition of AMD3100 to the standard G-CSF treatment
  increase of mobilized LSK: 3 fold
WBC, LSK and SLAM HSC [1]; post injection, PB analysis
  time of peak of mobilization of WBC, LSK and SLAM HSC: around 3 hours

## c1ccc(CNCc2ccc(CN3CCCNCCNCCCNCC3)cc2)nc1 [AMD3465]
[3]; AMD3100 or AMD3465, donor cells transplanted at the peak of mobilization
  exchange efficiency: remained unchanged
[3]; AMD3465 compared to AMD3100 in the standard protocol with G-CSF and BIO5192
  mobilization efficiency: not affected

B1: G-CSF: granulocyte colony-stimulating factor (Lenograstim) delivered by osmotic pump (protein, UniProt P09919 31-207, looked up)
Granulocyte …: TPLGPASSLPQSFLLKCLEQVRKIQGDGAALQEKLVSECATYKLCHPEELVLLGHSLGIPWAPLSSCPSQALQLAGCLSQLHSGLFLYQGLLQALEGISPELGPTLDTLQLDVADFATTIWQQMEELGMAPALQPTQGAMPAFASAFQRRAGGVLVASHLQSFLEVSYRVLRHLAQP
CXCL12
  CXCL12 in the BM stroma: decreased
WBC, LSK and SLAM HSC [1]; PB after mobilization protocols
  blood neutrophils and monocytes counts: highly increased
WBC, LSK and SLAM HSC [1]; with versus without G-CSF mobilization
  level of CXCR4 expression on circulating SLAM HSC: lower
MMP9
  MMP9 in the BM stroma: increased
